This is an account of results in PubChem BioAssay AID651879 (NMMLSC, 2012).

Molecules are shown by their SMILES. Activity calls are given as the source filed them. How the calls were made is not given here. A value given as a limit tells only on which side of the number the result lay.

For this assay, the target named is Botulinum neurotoxin type A light chain protease (Clostridium botulinum A str. ATCC 3502). Briefly: Clostridium botulinum neurotoxin A protease inhibition, microsphere cleavage flow cytometry, dose response (AID 651879). The note with it: multiplex microsphere protease cleavage assay.
As a reminder, the EC50 is the concentration giving half of the maximal effect. Turning to `CSc1ccc(C2=NN(c3ccc(S(C)(=O)=O)cc3)C(c3ccccc3)C2)cc1` (centres undefined), the EC50 was > 20 µM (inactive). Next, `NS(=O)(=O)c1ccc(N2N=C(c3ccncc3)CC2c2ccccc2)cc1` (centres undefined): > 20 µM (inactive); `c1ccc(C2CC(c3ccccn3)=NN2c2ccccc2)cc1` (centres undefined): > 20 µM (inactive).

For the molecule `CSc1ccc(C2=NN(c3ccccc3)C(c3ccccc3)C2)cc1` (centres undefined), the EC50 is > 20 µM (inactive).

As for `CC(C)CNC(=O)c1ccc(N2N=C(c3ccccc3)CC2c2ccccc2)cc1` (centres undefined), the EC50 is > 20 µM (inactive). Next, `CNC(=O)c1ccc(N2N=C(c3ccc(SC)cc3)CC2c2ccccc2)cc1` (centres undefined): > 20 µM (inactive); `COc1ccc(N2N=C(c3ccncc3)CC2c2ccccc2)cc1` (centres undefined): > 20 µM (inactive); `CS(=O)(=O)c1ccc(N2N=C(c3ccncc3)CC2c2ccccc2)cc1` (centres undefined): > 20 µM (inactive). As for `CC(C)NC(=O)c1ccc(N2N=C(c3ccccc3)CC2c2ccccc2)cc1` (centres undefined), the figure is > 20 µM (inactive). As for `O=[N+]([O-])c1ccc(N2N=C(c3ccccc3)CC2c2ccccc2)cc1` (centres undefined), the figure is > 20 µM (inactive); as for `NS(=O)(=O)c1ccc(N2N=C(c3cccnc3)CC2c2ccccc2)cc1` (centres undefined), > 20 µM (inactive); as for `O=C(c1ccc(N2N=C(c3ccccc3)CC2c2ccccc2)cc1)N1CCOCC1` (centres undefined), > 20 µM (inactive). Take `NS(=O)(=O)c1ccc(N2N=C(c3ccccc3)CC2c2ccccc2)cc1` (centres undefined): the EC50 is > 20 µM (inactive). On to `c1ccc(-c2cc(-c3ccccc3)n(-c3ccccc3)n2)cc1`, for which the EC50 was > 20 µM (inactive). As for `CSc1ccc(C2=NN(c3ccc(S(N)(=O)=O)cc3)C(c3ccccc3)C2)cc1` (centres undefined), the figure is > 20 µM (inactive). Next, `c1ccc(C2=NN(c3ccccc3)C(c3ccccc3)C2)cc1` (centres undefined): > 20 µM (inactive); `c1ccc(C2CC(c3cccnc3)=NN2c2ccccc2)cc1` (centres undefined): > 20 µM (inactive); `CS(=O)(=O)c1ccc(N2N=C(c3ccccc3)CC2c2ccccc2)cc1` (centres undefined): > 20 µM (inactive). As for `c1ccc(C2CC(c3ccncc3)=NN2c2ccccc2)cc1` (centres undefined), the figure is > 20 µM (inactive). In the case of `O=C(c1ccc(N2N=C(c3ccccc3)CC2c2ccccc2)cc1)N1CCCCC1` (centres undefined), the EC50 was > 20 µM (inactive). As for `CSc1ccc(C2=NN(c3ccc(C(=O)N4CCCCC4)cc3)C(c3ccccc3)C2)cc1` (centres undefined), the figure is > 20 µM (inactive).

As for `CSc1ccc(C2=NN(c3ccc(C(=O)N4CCOCC4)cc3)C(c3ccccc3)C2)cc1` (centres undefined), the EC50 is > 20 µM (inactive). For the molecule `COc1ccc(N2N=C(c3cccnc3)CC2c2ccccc2)cc1` (centres undefined), the EC50 was > 20 µM (inactive). As for `CNC(=O)c1ccc(N2N=C(c3ccccc3)CC2c2ccccc2)cc1` (centres undefined), the figure is > 20 µM (inactive). Next, `CSc1ccc(C2=NN(c3ccc([N+](=O)[O-])cc3)C(c3ccccc3)C2)cc1` (centres undefined): 0.5 µM. As for `COc1ccc(N2N=C(c3ccccn3)CC2c2ccccc2)cc1` (centres undefined), the figure is > 20 µM (inactive); as for `COc1ccc(N2N=C(c3ccccc3)CC2c2ccccc2)cc1` (centres undefined), > 20 µM (inactive). `CS(=O)(=O)c1ccc(N2N=C(c3cccnc3)CC2c2ccccc2)cc1` (centres undefined): the EC50 is > 20 µM (inactive). As for `COc1ccc(N2N=C(c3ccc(SC)cc3)CC2c2ccccc2)cc1` (centres undefined), the figure is > 20 µM (inactive).
